Measured values as given in US20220047569A1, “METHOD AND COMPOUND FOR USE, IN TREATING AND/OR PREVENTING NETOSIS” (Jubilant EpiPad LLC, priority 2020, published 2022).
Structures can show the parent of a compound that is named as a salt.

System: Histone H3 Citrullination in Neutrophils
Assay: Citrullination ELISA (Citrullinated Histone H3) in calcium ionophore stimulated neutrophils
Format: cell-based
Details: Neutrophil; human neutrophils, 25 μM calcium ionophore, CitH3 ELISA
Description: Neutrophils were isolated according to the EasySep Direct Human Neutrophil Isolation Kit. In short, 50 mL of blood sample was drawn in a vacutainer containing K2EDTA from a healthy donor. To the whole blood, the isolation cocktail of 50 μL/mL was added. Then, in the next step 50 μL/mL of RapidSpheres™ was added to the sample. The sample was mixed evenly with the pipette and incubated for 10 minutes at room temperature. After incubation, PBS containing 1 mM EDTA was added at the ratio of 1:1 to the blood. Then the sample tube was incubated for 10 minutes. The enriched cell suspension was transferred into a new tube and RapidSpheres™ were added at 50 μL/mL to this suspension, mixed and incubated for 10 minutes at room temperature. At this step, the enriched cell suspension was carefully collected as a clear fraction into a fresh tube. Then, previous tube was replaced with the fresh tube containing enriched cell suspension. After the final separation, the clear solution of enriched cell suspension was carefully transferred to fresh tube which was ready to use for the experiment. These cells were then subjected to wash twice with plain RPMI 1640 media without Fetal Bovine Serum (FBS) and centrifuged at 1500 rpm for 5 minutes at room temperature. Cell counts were performed on each sample by Invitrogen cell counter. After the cell count, cell density was adjusted according to the experiment and re-suspended in complete RPMI media containing RPMI1640, 2% BSA and 1 mM CaCl2.
Freshly isolated neutrophils from human donor were seeded at a density of 0.5×10^6 cells in 400 μL cell suspension/well in a 24-well plate and cells were pre-incubated with the compound for 30 minutes by adding 50 μL of the 10× concentration to achieve the final 1× concentration of compound (10 μM, 1 μM and 0.1 μM). 1% DMSO was added in control wells. Then, the cells were stimulated in the presence and absence of calcium ionophore by adding 50 μL/well to achieve the final concentration of 25 μM. Upon incubation for 30 minutes with calcium ionophore, S7 nuclease was added to the wells and incubated for 10 minutes to disrupt NET DNA. Following incubation, 10 μL of 1 mM EDTA was added to inactivate nuclease. Cells were scrapped gently and transferred to the tubes, followed by centrifugation at 1500 rpm for 5 minutes. After centrifugation, supernatant was discarded, and 200 μL of lysis buffer containing PBS and 1× Protease inhibitor was added to the tubes. The obtained lysis was then subjected to mechanical shearing using Geno grinder by spin the plate at 2500 rpm for 10 minutes, followed by collection of supernatant and stored at −20° C. or immediately used for ELISA.
ELISA was performed as per Citrullinated Histone H3 ELISA Kit. All the buffer components from the kit were dissolved according to the manufactures protocol. ELISA Buffer Concentrate (10×) (Item No. 400060) and Wash Buffer Concentrate (400×) (Item No. 400060) along with polysorbate 20 (2000×) (Item No. 400035) was diluted to 1× with milliQ water. The standard for use in the ELISA was prepared as follows: • Obtain eight clean test tubes and label them, #1 through #8. Aliquot 4.9 mL of ELISA Buffer into tube #1. • Aliquot 500 μL of ELISA Buffer into the tubes #2-8. […] This tube is considered as blank, the lowest point on the standard curve.
100 μL of standards or diluted sample was added to the appropriate wells on the 96-well plate. Plates were covered with 96-well cover sheet and incubated for two hours at room temperature on an orbital shaker. The samples and standard were removed from the wells and washed four times with Wash Buffer. After the last wash, Anti-Histone H3 HRP Conjugate (Item No. 501441) (10×) stock solution was diluted in 1×ELISA buffer and 100 μL of the HRP Conjugate working solution was added to each well of the plate and incubated for one hour at room temperature on an orbital shaker. […]

Row | IC50 | SMILES
1 | 100 to 1000 nM | COc1ccc(Cn2c(-c3nc4cc(C(=O)N5CCC[C@@H](N)C5)cc5c4n3CCO5)cc3ccccc32)cc1 [Compound 105, (R)-(3-aminopiperidin-1-yl)(2-(1-(4-methoxybenzyl)-1H-indol-2-yl)-3,4-dihydro-5-oxa-1,2a-diazaacenaphthylen-7-yl)methanone]
2 | 100 to 1000 nM | COCCn1c(-c2nc3cc(C(=O)N4CCC[C@@H](N)C4)cc4c3n2CCO4)cc2ccccc21 [Compound 106, (R)-(3-aminopiperidin-1-yl)(2-(1-(2-methoxyethyl)-1H-indol-2-yl)-3,4-dihydro-5-oxa-1,2a-diazaacenaphthylen-7-yl)methanone]
3 | 100 to 1000 nM | COCCn1c(-c2nc3cc(C(=O)N4CCC[C@@H](N)C4)cc4c3n2CCO4)cc2ccc(OC)cc21 [Compound 107, (R)-(3-aminopiperidin-1-yl)(2-(6-methoxy-1-(2-methoxyethyl)-1H-indol-2-yl)-3,4-dihydro-5-oxa-1,2a-diazaacenaphthylen-7-yl)methanone]
4 | 100 to 1000 nM | COc1ccc2cc(-c3nc4cc(C(=O)N5CCC[C@@H](N)C5)cc5c4n3CCO5)n(CC3CC3)c2c1 [Compound 109, (R)-(3-aminopiperidin-1-yl)(2-(1-(cyclopropylmethyl)-6-methoxy-1H-indol-2-yl)-3,4-dihydro-5-oxa-1,2a-diazaacenaphthylen-7-yl)methanone]
5 | < 100 nM | N[C@@H]1CCCN(C(=O)c2cc3c4c(c2)nc(-c2cc5ccccc5n2Cc2ccncc2F)n4CCO3)C1 [Compound 110, (R)-(3-aminopiperidin-1-yl)(2-(1-((3-fluoropyridin-4-yl)methyl)-1H-indol-2-yl)-3,4-dihydro-5-oxa-1,2a-diazaacenaphthylen-7-yl)methanone]
6 | 100 to 1000 nM | N[C@@H]1CCCN(C(=O)c2cc3c4c(c2)nc(-c2cc5ccccc5n2Cc2cnccn2)n4CCO3)C1 [Compound 111, (R)-(3-aminopiperidin-1-yl)(2-(1-(pyrazin-2-ylmethyl)-1H-indol-2-yl)-3,4-dihydro-5-oxa-1,2a-diazaacenaphthylen-7-yl)methanone]
7 | < 100 nM | N[C@@H]1CCCN(C(=O)c2cc3c4c(c2)nc(-c2cc5ccccc5n2Cc2ncccc2F)n4CCO3)C1 [Compound 112, (R)-(3-aminopiperidin-1-yl)(2-(1-((3-fluoropyridin-2-yl)methyl)-1H-indol-2-yl)-3,4-dihydro-5-oxa-1,2a-diazaacenaphthylen-7-yl)methanone]
8 | < 100 nM | N[C@@H]1CCCN(C(=O)c2cc3c4c(c2)nc(-c2cc5ccccc5n2Cc2ncccn2)n4CCO3)C1 [Compound 113, (R)-(3-aminopiperidin-1-yl)(2-(1-(pyrimidin-2-ylmethyl)-1H-indol-2-yl)-3,4-dihydro-5-oxa-1,2a-diazaacenaphthylen-7-yl)methanone]
9 | < 100 nM | N[C@@H]1CCCN(C(=O)c2cc3c4c(c2)nc(-c2cc5ccc(F)cc5n2CC2CC2)n4CCO3)C1 [Compound 114, (R)-(3-aminopiperidin-1-yl)(2-(1-(cyclopropylmethyl)-6-fluoro-1H-indol-2-yl)-3,4-dihydro-5-oxa-1,2a-diazaacenaphthylen-7-yl)methanone]
10 | 100 to 1000 nM | CC(C)Cn1c(-c2nc3cc(C(=O)N4CCC[C@@H](N)C4)cc4c3n2CCO4)cc2ccccc21 [Compound 117, (R)-(3-aminopiperidin-1-yl)(2-(1-isobutyl-1H-indol-2-yl)-3,4-dihydro-5-oxa-1,2a-diazaacenaphthylen-7-yl)methanone]
11 | 100 to 1000 nM | COc1ccc2cc(-c3nc4cc(C(=O)N5CCC[C@@H](N)C5)cc5c4n3CCO5)n(Cc3ncccc3F)c2c1 [Compound 119, (R)-(3-aminopiperidin-1-yl)(2-(1-((3-fluoropyridin-2-yl)methyl)-6-methoxy-1H-indol-2-yl)-3,4-dihydro-5-oxa-1,2a-diazaacenaphthylen-7-yl)methanone]
12 | 100 to 1000 nM | N[C@@H]1CCCN(C(=O)c2cc3c4c(c2)nc(-c2cc5cccc(Cl)c5n2Cc2ncccc2F)n4CCO3)C1 [Compound 120, (R)-(3-aminopiperidin-1-yl)(2-(7-chloro-1-((3-fluoropyridin-2-yl)methyl)-1H-indol-2-yl)-3,4-dihydro-5-oxa-1,2a-diazaacenaphthylen-7-yl)methanone]
13 | > 1000 nM | N[C@@H]1CCCN(C(=O)c2cc3c4c(c2)nc(-c2cc5ccc(F)cc5n2Cc2ncccc2F)n4CCO3)C1 [Compound 121, (R)-(3-aminopiperidin-1-yl)(2-(6-fluoro-1-((3-fluoropyridin-2-yl)methyl)-1H-indol-2-yl)-3,4-dihydro-5-oxa-1,2a-diazaacenaphthylen-7-yl)methanone]
14 | 100 to 1000 nM | COCCn1c(-c2nc3cc(C(=O)N4CCC[C@@H](N)C4)cc4c3n2CCO4)cc2cccc(Cl)c21 [Compound 122, (R)-(3-aminopiperidin-1-yl)(2-(7-chloro-1-(2-methoxyethyl)-1H-indol-2-yl)-3,4-dihydro-5-oxa-1,2a-diazaacenaphthylen-7-yl)methanone]
15 | 100 to 1000 nM | N[C@@H]1CCCN(C(=O)c2cc3c4c(c2)nc(-c2cc5ccccc5n2Cc2ccc(CO)cc2)n4CCO3)C1 [Compound 123, (R)-(3-aminopiperidin-1-yl)(2-(1-(4-(hydroxymethyl)benzyl)-1H-indol-2-yl)-3,4-dihydro-5-oxa-1,2a-diazaacenaphthylen-7-yl)methanone trifluoroacetic acid salt]
16 | < 100 nM | COc1ccc(Cn2c(-c3nc4cc(C(=O)N5CCC[C@@H](N)C5)cc5c4n3CCO5)cc3cccc(Cl)c32)cc1 [Compound 125, (R)-(3-aminopiperidin-1-yl)(2-(7-chloro-1-(4-methoxybenzyl)-1H-indol-2-yl)-3,4-dihydro-5-oxa-1,2a-diazaacenaphthylen-7-yl)methanone]
17 | > 1000 nM | N[C@@H]1CCCN(C(=O)c2cc3c4c(c2)nc(-c2cc5ccccc5n2CC2CCOCC2)n4CCO3)C1 [Compound 126, (R)-(3-aminopiperidin-1-yl)(2-(1-((tetrahydro-2H-pyran-4-yl)methyl)-1H-indol-2-yl)-3,4-dihydro-5-oxa-1,2a-diazaacenaphthylen-7-yl)methanone]
18 | 100 to 1000 nM | N[C@@H]1CCCN(C(=O)c2cc3c4c(c2)nc(-c2cc5ccccc5n2CC2CCC2)n4CCO3)C1 [Compound 127, (R)-(3-aminopiperidin-1-yl)(2-(1-(cyclobutylmethyl)-1H-indol-2-yl)-3,4-dihydro-5-oxa-1,2a-diazaacenaphthylen-7-yl)methanone]
19 | > 1000 nM | COc1ccc(Cn2c(-c3nc4cc(C(=O)N5CCC[C@@H](N)C5)cc5c4n3CCO5)cc3cc(F)ccc32)cc1 [Compound 132, (R)-(3-aminopiperidin-1-yl)(2-(5-fluoro-1-(4-methoxybenzyl)-1H-indol-2-yl)-3,4-dihydro-5-oxa-1,2a-diazaacenaphthylen-7-yl)methanone]
20 | > 1000 nM | N[C@@H]1CCCN(C(=O)c2cc3c4c(c2)nc(-c2cc5ccccc5n2CC(F)F)n4CCO3)C1 [Compound 133, (R)-(3-aminopiperidin-1-yl)(2-(1-(2,2-difluoroethyl)-1H-indol-2-yl)-3,4-dihydro-5-oxa-1,2a-diazaacenaphthylen-7-yl)methanone]
21 | 100 to 1000 nM | COCCn1c(-c2nc3cc(C(=O)N4CCC[C@@H](N)C4)cc4c3n2CCO4)cc2cc(F)ccc21 [Compound 134, (R)-(3-aminopiperidin-1-yl)(2-(5-fluoro-1-(2-methoxyethyl)-1H-indol-2-yl)-3,4-dihydro-5-oxa-1,2a-diazaacenaphthylen-7-yl)methanone]
